Experimental data as given in patent US20230250060A1 (IFM Due, Inc., priority 2022, published 2023).

Molecular target: T1, STING (Homo sapiens, UniProt Q86WV6, G230A/H232R/R293Q/R71H)
T1 construct: host or cells: THP1-Dual KO-IFNAR2 cells
Test: STING reporter assay (luciferase) in THP1-Dual KO-IFNAR2 cells stimulated with 2′3′cGAMP
Assay type: cell-based
Settings: 2′3′cGAMP 15 μM final, 24 h, luciferase reporter activity, read-out: Pharmaron, THP1_IFNAR2 STING 24 h Luci Normalized: GeoMean EC50
Procedure: STING pathway activation by the compounds described herein was measured using TTIP1-Dual™ cells (KO-IFNAR2).
TTIP1-Dual™ KO-IFNAR2 Cells (obtained from invivogen) were maintained in RPMI, 10% FCS, 5 ml P/S, 2 mM L-glut, 10 mM Hepes, and 1 mM sodium pyruvate. Compounds were spotted in empty 384 well tissue culture plates (Greiner 781182) by Echo for a final concentration of 0.0017-100 μM. Cells were plated into the TC plates at 40 μL per well, 2×10E6 cells/mL. For activation with STING ligand, 2′3′cGAMP (MW 718.38, obtained from Invivogen), was prepared in Optimem media.
The following solutions were prepared for each 1×384 plate: • Solution A: 2 mL Optimem with one of the following stimuli: • […] • Solution B: 2 mL Optimem with […] Lipofectamine 2000→Incubate 5 min at RT
2 mL of solution A and 2 ml Solution B was mixed and incubated for 20 min at room temperature (RT). 20 μL of transfection solution (A+B) was added on top of the plated cells, with a final 2′3′cGAMP concentration of 15 μM. The plates were then centrifuged immediately at 340 g for 1 minute, after which they were incubated at 37° C., 5% CO2, >98% humidity for 24 h. Luciferase reporter activity was then measured. EC50 values were calculated by using standard methods known in the art.
Luciferase reporter assay: 10 μL of supernatant from the assay was transferred to white 384-plate with flat bottom and squared wells. One pouch of QUANTI-Luc™ Plus was dissolved in 25 mL of water. 100 μL of QLC Stabilizer per 25 mL of QUANTI-Luc™ Plus solution was added. 50 μL of QUANTI-Luc™ Plus/QLC solution per well was then added. Luminescence was measured on a Platereader (e.g., Spectramax I3X (Molecular Devices GF3637001)).
Luciferase reporter activity was then measured. EC50 values were calculated by using standard methods known in the art.

T1 sequence (Q86WV6 whole entry R71H/G230A/H232R/R293Q): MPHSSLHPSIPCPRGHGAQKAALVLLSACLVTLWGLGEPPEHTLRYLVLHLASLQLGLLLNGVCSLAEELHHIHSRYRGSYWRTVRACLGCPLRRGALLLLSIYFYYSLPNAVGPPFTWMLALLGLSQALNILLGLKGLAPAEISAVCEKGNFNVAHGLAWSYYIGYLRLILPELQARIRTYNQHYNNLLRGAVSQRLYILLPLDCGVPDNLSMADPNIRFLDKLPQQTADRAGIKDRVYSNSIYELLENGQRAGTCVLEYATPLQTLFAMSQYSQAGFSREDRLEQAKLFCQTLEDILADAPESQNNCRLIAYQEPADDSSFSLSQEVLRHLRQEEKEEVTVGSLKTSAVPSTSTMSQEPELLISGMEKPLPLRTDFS

SMILES	EC50
O=C(Nc1c[nH]c2ccc(O[C@H]3C[C@H](c4ccc(C(F)(F)F)nc4)C3)cc12)c1ccc(C(F)(F)F)cc1 [Compound 213, 4-(trifluoromethyl)-N-(5-(trans-3-(6-(trifluoromethyl)pyridin-3-yl)cyclobutoxy)-1H-indol-3-yl)benzamide]	200 to 1000 nM
O=C(Nc1c[nH]c2ccc(O[C@H]3C[C@H](c4ccc(C(F)(F)F)cc4)C3)cc12)C1C2COCC21 (stereo partly drawn) [Compound 207, N-(5-(trans-3-(4-(trifluoromethyl)phenyl)cyclobutoxy)-1H-indol-3-yl)-3-oxabicyclo[3.1.0]hexane-6-carboxamide]	200 to 1000 nM
O=C(Nc1c[nH]c2ccc(O[C@H]3C[C@H](c4ccc(C(F)(F)F)cc4)C3)cc12)c1ccn[nH]1 [Compound 226, N-{5-[(1R,3R)-3-[4-(trifluoromethyl)phenyl]cyclobutoxy]-1H-indol-3-yl}-1H-pyrazole-5-carboxamide]	40 to 200 nM
O=C(Nc1c[nH]c2ccc(O[C@H]3C[C@@H](c4ccc(C(F)(F)F)cc4)C3)cc12)C1CC2(CC2)C1 [Compound 156, N-(5-((1s,3s)-3-(4-(trifluoromethyl)phenyl)cyclobutoxy)-1H-indol-3-yl)spiro[2.3]hexane-5-carboxamide]	200 to 1000 nM
O=C(Nc1c[nH]c2ccc(O[C@H]3C[C@H](c4ccc(C(F)(F)F)cc4)C3)cc12)c1cscn1 [Compound 239, N-(5-((1R,3R)-3-(4-(trifluoromethyl)phenyl)cyclobutoxy)-1H-indol-3-yl)thiazole-4-carboxamide]	40 to 200 nM
Cn1cc(C(=O)Nc2c[nH]c3ccc(O[C@H]4C[C@H](c5ccc(C(F)(F)F)cc5)C4)cc23)nn1 [Compound 128, 1-methyl-N-(5-((1r,3r)-3-(4-(trifluoromethyl)phenyl)cyclobutoxy)-1H-indol-3-yl)-1H-1,2,3-triazole-4-carboxamide]	200 to 1000 nM
O=C(Nc1c[nH]c2ccc(O[C@H]3C[C@H](c4ccc(C(F)(F)F)cc4)C3)cc12)C1CC2(CC2)C1 [Compound 229, N-{5-[(1R,3R)-3-[4-(trifluoromethyl)phenyl]cyclobutoxy]-1H-indol-3-yl}spiro[2.3]hexane-5-carboxamide]	40 to 200 nM
Cn1cc(C(=O)Nc2c[nH]c3ccc(O[C@H]4C[C@H](c5ccc(C(F)(F)F)nc5)C4)cc23)nn1 [Compound 219, 1-methyl-N-(5-(trans-3-(6-(trifluoromethyl)pyridin-3-yl)cyclobutoxy)-1H-indol-3-yl)-1H-1,2,3-triazole-4-carboxamide]	200 to 1000 nM
O=C(Nc1c[nH]c2ccc(O[C@H]3C[C@@H](c4ccc(C(F)(F)F)cc4)C3)cc12)c1cccnc1 [Compound 169, N-(5-((1s,3s)-3-(4-(trifluoromethyl)phenyl)cyclobutoxy)-1H-indol-3-yl)nicotinamide]	40 to 200 nM
O=C(Nc1c[nH]c2ccc(O[C@H]3C[C@@H](c4ccc(C(F)(F)F)cc4)C3)cc12)c1cscn1 [Compound 192, N-(5-((1s,3s)-3-(4-(trifluoromethyl)phenyl)cyclobutoxy)-1H-indol-3-yl)thiazole-4-carboxamide]	200 to 1000 nM
Cn1ccnc1C(=O)Nc1c[nH]c2ccc(O[C@H]3C[C@@H](c4ccc(C(F)(F)F)cc4)C3)cc12 [Compound 139, 1-methyl-N-(5-((1s,3s)-3-(4-(trifluoromethyl)phenyl)cyclobutoxy)-1H-indol-3-yl)-1H-imidazole-2-carboxamide]	200 to 1000 nM
O=C(Nc1c[nH]c2ccc(O[C@H]3C[C@@H](c4ccc(C(F)(F)F)cc4)C3)cc12)c1ccncc1 [Compound 166, N-(5-((1s,3s)-3-(4-(trifluoromethyl)phenyl)cyclobutoxy)-1H-indol-3-yl)isonicotinamide]	200 to 1000 nM
CC12CC(C(=O)Nc3c[nH]c4ccc(O[C@H]5C[C@H](c6ccc(C(F)(F)F)cc6)C5)cc34)(C1)C2 [Compound 238, 3-methyl-N-{5-[(1R,3R)-3-[4-(trifluoromethyl)phenyl]cyclobutoxy]-1H-indol-3-yl}bicyclo[1.1.1]pentane-1-carboxamide]	40 to 200 nM
O=C(Nc1c[nH]c2ccc(O[C@H]3C[C@@H](c4ccc(C(F)(F)F)cc4)C3)cc12)C1CC2(CCC2)C1 [Compound 155, N-(5-((1s,3s)-3-(4-(trifluoromethyl)phenyl)cyclobutoxy)-1H-indol-3-yl)spiro[3.3]heptane-2-carboxamide]	200 to 1000 nM
O=C(Nc1c[nH]c2ccc(O[C@H]3C[C@@H](c4ccc(C(F)(F)F)cc4)C3)cc12)c1nccs1 [Compound 175, N-(5-((1s,3s)-3-(4-(trifluoromethyl)phenyl)cyclobutoxy)-1H-indol-3-yl)thiazole-2-carboxamide]	200 to 1000 nM

Other lines, results leading:

EC50	SMILES
200 to 1000 nM	O=C(Nc1c[nH]c2ccc(OCc3ccc(C(F)(F)F)cc3)cc12)C12CC(F)(C1)C2 [Compound 138, 3-fluoro-N-(5-((4-(trifluoromethyl)benzyl)oxy)-1H-indol-3-yl)bicyclo[1.1.1]pentane-1-carboxamide]
40 to 200 nM	O=C(Nc1c[nH]c2ccc(OCCc3ccc(C(F)(F)F)cc3)cc12)c1ccn[nH]1 [Compound 122, N-(5-(4-(trifluoromethyl)phenethoxy)-1H-indol-3-yl)-1H-pyrazole-5-carboxamide]
5000 to 100000 nM	Cc1oncc1C(=O)Nc1c[nH]c2ccc(CCOc3ccc(C(F)(F)F)cc3)cc12 [Compound 118]
200 to 1000 nM	O=C(Nc1c[nH]c2ccc(OCCc3ccc(C(F)(F)F)cc3)cc12)c1ncco1 [Compound 161, N-(5-(4-(trifluoromethyl)phenethoxy)-1H-indol-3-yl)oxazole-2-carboxamide]
200 to 1000 nM	O=C(Nc1c[nH]c2ccc(OCc3ccc(C(F)(F)F)cc3)cc12)c1ncccc1F [Compound 152, 3-fluoro-N-(5-((4-(trifluoromethyl)benzyl)oxy)-1H-indol-3-yl)picolinamide]
200 to 1000 nM	O=C(Nc1c[nH]c2ccc(CCOc3ccc(C(F)(F)F)cc3)cc12)c1ccn[nH]1 [Compound 160, N-(5-(2-(4-(trifluoromethyl)phenoxy)ethyl)-1H-indol-3-yl)-1H-pyrazole-5-carboxamide]
40 to 200 nM	O=C(Nc1c[nH]c2ccc(Oc3ccccc3)cc12)c1cnn(Cc2ccc(C(F)(F)F)cc2)c1 [Compound 246, N-(5-phenoxy-1H-indol-3-yl)-1-(4-(trifluoromethyl)benzyl)-1H-pyrazole-4-carboxamide]
200 to 1000 nM	Cc1noc(C)c1C(=O)Nc1c[nH]c2ccc(OCc3ccc(C(F)(F)F)cc3)cc12 [Compound 153, 3,5-dimethyl-N-(5-((4-(trifluoromethyl)benzyl)oxy)-1H-indol-3-yl)isoxazole-4-carboxamide]
200 to 1000 nM	CC12CC(C(=O)Nc3c[nH]c4ccc(OCCc5ccc(C(F)(F)F)cc5)cc34)(C1)C2 [Compound 107, 3-methyl-N-(5-(4-(trifluoromethyl)phenethoxy)-1H-indol-3-yl)bicyclo[1.1.1]pentane-1-carboxamide]
200 to 1000 nM	O=C(CC1CC1)Nc1c[nH]c2ccc(OCC[C@@H]3C[C@@H]4CN(CC(F)(F)F)C[C@@H]4C3)cc12 [Compound 184]
200 to 1000 nM	O=C(Nc1c[nH]c2ccc(COCc3ccc(C(F)(F)F)cc3)cc12)C12CC(F)(C1)C2 [Compound 134, 3-fluoro-N-(5-(((4-(trifluoromethyl)benzyl)oxy)methyl)-1H-indol-3-yl)bicyclo[1.1.1]pentane-1-carboxamide]
200 to 1000 nM	O=C(Nc1c[nH]c2ccc(OCc3ccc(C(F)(F)F)cc3)cc12)C1CC2(CC2)C1 [Compound 221, N-(5-{[4-(trifluoromethyl)phenyl]methoxy}-1H-indol-3-yl)spiro[2.3]hexane-5-carboxamide]
200 to 1000 nM	O=C(Nc1c[nH]c2ccc(CCOc3ccc(C(F)(F)F)cc3)cc12)C12CC(C1)C2 [Compound 135]
200 to 1000 nM	O=C(Nc1c[nH]c2ccc(CCOc3ccc(C(F)(F)F)cc3)cc12)C1CC12CC2 (stereo not shown) [Compound 200, N-(5-(2-(4-(trifluoromethyl)phenoxy)ethyl)-1H-indol-3-yl)spiro[2.2]pentane-1-carboxamide]
200 to 1000 nM	Cn1nccc1C(=O)Nc1c[nH]c2ccc(CCOc3ccc(C(F)(F)F)cc3)cc12 [Compound 103, 1-methyl-N-(5-(2-(4-(trifluoromethyl)phenoxy)ethyl)-1H-indol-3-yl)-1H-pyrazole-5-carboxamide]
200 to 1000 nM	CC12CC(C(=O)Nc3c[nH]c4ccc(CCOc5ccc(C(F)(F)F)cc5)cc34)(C1)C2 [Compound 199, 3-methyl-N-(5-(2-(4-(trifluoromethyl)phenoxy)ethyl)-1H-indol-3-yl)bicyclo[1.1.1]pentane-1-carboxamide]
